# Measured values from paper PMC5464773 (eLife, 2017).
# Read-outs that look alike come from different tables or passages of the source.
# Key:
# [1] = test system: BCR-ABL-expressing B-lineage acute lymphoblastic leukemia cells dependent on Bcl-2; assay: BH3 profiling, mitochondrial depolarization (JC-1) in permeabilized cells; format: cell-based; conditions: BH3 profiling fits Bcl-2, sigmoidal dose-response (variable slope); for Bottom (best-fit value): constrained (Bottom < 5 or 0 < Bottom < 5); for Top (best-fit value): constrained (Top > 78 or Top < 100); for LogEC50 (best-fit value): x = Log [Peptide] M, fits ambiguous or hit constraint
# Description: We tested our designed peptides for Bfl-1 selective targeting by carrying out BH3 profiling of cells with known dependencies on anti-apoptotic proteins. In this assay, peptides are titrated into permeabilized cells, and mitochondrial depolarization is measured using the voltage-sensitive dye JC-1 (Figure 7A) ([Deng et al., 2007]). We tested the apoptotic sensitivity of BCR-ABL-expressing B-lineage acute lymphoblastic leukemia cell lines engineered to depend on Bcl-2, Bcl-xL, Mcl-1 or Bfl-1 overexpression for survival ([Koss et al., 2016]). […] EC50 values for inducing mitochondrial permeabilization in the engineered cell lines agreed well with trends in Bfl-1-binding affinities, as expected based on the mechanism of action (Figure 7C).
# The creation and characterization of the BCR-ABL-expressing B-lineage acute lymphoblastic leukemia suspension cell lines with engineered dependencies on human versions of anti-apoptotic genes is detailed in [Koss et al. (2016)]). Cells were grown in RPMI (Life Technologies, Carlsbad, CA) with 10% fetal bovine serum, 2 mM L-glutamine, 10 mL/L 100x Pen/Strep (Life Technologies # 15140122), 25 mM HEPES and 10 mL/L 100x NEAA (Life Technologies, 11140050). The adherent cell lines PC-3 (RRID: CVCL_0035) and SF295 (RRID: CVCL_1690) are from the NCI60 panel ([Lorenzi et al., 2009]) and were grown in RPMI (Life Technologies) with 10% fetal bovine serum, 2 mM L-glutamine and 10 mL/L 100x Pen/Strep (Life Technologies # 15140122 ). Cell line identities were confirmed by STR profiling. The Lookout Mycoplasma PCR detection kit (Sigma) was used to detect mycoplasma infection. Mycoplasma was only detected in the PC-3 cell line, and internal controls were used to account for this phenotype.
# Peptides were titrated by serial dilution in MEB buffer (150 mM Mannitol, 10 mM HEPES-KOH pH 7.5, 50 mM KCl, 0.02 mM EGTA, 0.02 mM EDTA, 0.1% BSA and 5 mM Succinate) containing 20 μg/mL oligomycin, 50 μg/mL digitonin, 2 μM JC-1 and 10 mM 2-mercaptoethanol in 384-well plates. Controls for no depolarization (1% DMSO) and complete depolarization with the mitochondrial oxidative phosphorylation uncoupler FCCP (20 μM) were included for data normalization. Cells were suspended at 1.67 × 10^6 cells/mL in MEB. 15 μL of cell suspension was added to each well containing 15 μL of treatment solution. Fluorescence emission was measured every 5 min for 3 hr at […] with 525 nm excitation on a Tecan Safire2. To produce percent depolarization, the area under the resultant curve was calculated and normalized to the assay controls. Peptide titration curves were fit to sigmoidal dose-response curves using Graphpad PRISM seven to obtain EC50 values.
# Mcl-1 = target: T1, Mcl-1 (Homo sapiens, UniProt Q07820); assay: Competition fluorescence polarization (anisotropy) with fluoresceinated BIM; format: binding
# T1 construct: c-myc
# Description: C-myc-tagged receptors were used for all Bcl-2 homologs, as previously described ([DeBartolo et al., 2012]; [Dutta et al., 2010]). Plates were mixed at 23°C for 3 hr. Plates were read again at 24 to check equilibration. Experiments were done in at least triplicate. Data were fit, as described for competition fluorescence anisotropy experiments in [Foight et al. (2014]), to a complete competitive binding model (equation 17 in [Roehrl et al. [2004]]) using a Python script.
# PC-3 cells = assay: iBH3, cytochrome c release in unprimed cells (BAK/BAX activator function); format: cell-based; conditions: for peptide concentration leading to cytochrome c release in unprimed cells: PC-3, unprimed, iBH3, 25°C, 1 hr; for LogEC50 (best-fit value) / HillSlope (best-fit value) / Bottom (best-fit value) / Top (best-fit value): iBH3 fit PC-3, sigmoidal dose-response (variable slope); for LogEC50 (best-fit value): log of EC50, x axis Log [Peptide M]; for Bottom (best-fit value) / Top (best-fit value): fit of 4 replicates
# Description: To test the possibility that FS1, FS2 or FS3 may directly activate BAK and BAX, we measured cytochrome c release in two ‘unprimed’ cell lines (PC-3 and SF295). Unprimed cells require BAK/BAX activators to release cytochrome c ([Certo et al., 2006]).
# Cell line identities were confirmed by STR profiling.
# Plates were incubated at 25°C for 1 hr.
# [2] = competition FP source data, mean of three replicates, values above 5 μM are reported as > 5 μM in the figures, read-out: mean Ki (M) Mcl-1
# [3] = competition FP source data, replicate 1
# [4] = competition FP source data, replicate 2
# [5] = competition FP source data, replicate 3
# T1 sequence (Q07820 whole entry): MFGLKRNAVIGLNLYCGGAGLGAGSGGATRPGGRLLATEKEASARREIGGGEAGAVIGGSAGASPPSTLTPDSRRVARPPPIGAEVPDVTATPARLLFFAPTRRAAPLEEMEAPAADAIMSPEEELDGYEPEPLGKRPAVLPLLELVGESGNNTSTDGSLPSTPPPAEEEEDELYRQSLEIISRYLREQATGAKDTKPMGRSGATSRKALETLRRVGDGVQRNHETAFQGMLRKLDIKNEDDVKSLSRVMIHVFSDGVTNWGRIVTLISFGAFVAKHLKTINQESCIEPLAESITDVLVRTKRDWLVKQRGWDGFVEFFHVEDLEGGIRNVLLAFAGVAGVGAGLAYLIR
Substance,HillSlope (best-fit value) [1],Bottom (best-fit value) [1],Top (best-fit value) [1],LogEC50 (best-fit value) [1],Ki (Mcl-1; [2]) [M],Ki (M) Mcl-1 (Mcl-1; [3]) [M],Ki (M) Mcl-1 (Mcl-1; [4]) [M],Ki (M) Mcl-1 (Mcl-1; [5]) [M],peptide concentration leading to cytochrome c release in unprimed cells (PC-3 cells) [µM],LogEC50 (best-fit value) (PC-3 cells),HillSlope (best-fit value) (PC-3 cells),Bottom (best-fit value) (PC-3 cells),Top (best-fit value) (PC-3 cells),"Ki (Mcl-1; competition FP, 50 nM c-myc-tagged receptor + 25 nM fluoresceinated BIM, Tris pH 7.8, 23°C, 3 hr, mean ± SD of three replicates, read-out: Ki (nM) Mcl-1) [M]",fold weaker binding to Mcl-1 than to Bfl-1 (Mcl-1; ratio of Ki values from competition FP) [fold]
Ac-QWIREIAAGLRRFADILNAQVER-NH2 [FS3],1.964,~ 5,~ 100,-5.077,5.52e-07,6.51e-07,6.19e-07,3.85e-07,30 to 100,-4.638,2.225,0.07242,1.062,–,–
Ac-QWVREIAAGLRLAADNVNAQLER-NH2 [FS1],0.3224,~ 5,~ 78,~ -2.821,7.64e-06,2.37e-06,8.12e-06,1.24e-05,> 100,~ -3.754,~ -10.78,~ -63.64,0.1,> 5e-06,–
Ac-QWVREIAAGLRRAADDVNAQVER-NH2 [FS2],1.067,~ 5,~ 100,-4.482,–,2.88e-06,3.39e-06,3.32e-06,> 100,–,–,–,–,–,> 100
